Here are results for 1 compound from ChEMBL document CHEMBL2074143, “Up-regulation of organic anion transporter 1 protein is induced by chronic furosemide or hydrochlorothiazide infusion in rat kidney” (Nephrol Dial Transplant, 2003).

The target of data set [1] is T1, Solute carrier family 22 member 6 (Rattus norvegicus, UniProt O35956).
T1 sequence (O35956 whole entry): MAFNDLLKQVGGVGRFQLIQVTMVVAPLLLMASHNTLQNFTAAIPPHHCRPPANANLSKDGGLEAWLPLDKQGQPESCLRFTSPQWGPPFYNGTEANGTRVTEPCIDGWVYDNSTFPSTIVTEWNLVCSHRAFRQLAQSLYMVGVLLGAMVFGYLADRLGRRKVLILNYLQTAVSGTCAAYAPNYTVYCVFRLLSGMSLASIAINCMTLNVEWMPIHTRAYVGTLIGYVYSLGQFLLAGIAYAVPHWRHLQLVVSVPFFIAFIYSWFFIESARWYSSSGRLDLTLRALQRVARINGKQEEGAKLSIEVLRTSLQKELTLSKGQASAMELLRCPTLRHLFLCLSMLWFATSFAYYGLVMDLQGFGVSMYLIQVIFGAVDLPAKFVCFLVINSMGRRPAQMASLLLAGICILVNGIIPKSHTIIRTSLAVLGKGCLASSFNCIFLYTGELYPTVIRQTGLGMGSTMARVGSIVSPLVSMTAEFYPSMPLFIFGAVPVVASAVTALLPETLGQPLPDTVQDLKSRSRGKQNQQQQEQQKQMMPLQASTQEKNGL
Kind of data set: TP_TRANSPORTER: quantitative PCR in vivo, SD rat, kidney. Type of data set: functional, organism-based, Sprague-Dawley.

Data set [2] deals with T1, Solute carrier family 22 member 6. As to the kind of experiment: TP_TRANSPORTER: Western in vivo, SD rat, kidney. Type of data set: functional, organism-based, Sprague-Dawley.

`NS(=O)(=O)c1cc(C(=O)O)c(NCc2ccco2)cc1Cl` [FUROSEMIDE]: the Activity entry in data set [1] and in data set [2] was “inducer []” throughout.
